{"source": "PubChem BioAssay (NCI)", "test_in_all_cases": "growth of human tumour cells (NCI), 48 h", "key": {"BT-549 breast": {"system": "BT-549 breast"}, "HL-60(TB) leukemia": {"system": "HL-60(TB) leukemia"}, "HT29 colon": {"system": "HT29 colon"}, "M14 melanoma": {"system": "M14 melanoma"}, "SK-MEL-28 melanoma": {"system": "SK-MEL-28 melanoma"}, "SK-OV-3 ovarian": {"system": "SK-OV-3 ovarian"}, "T-47D breast": {"system": "T-47D breast"}, "TK-10 renal": {"system": "TK-10 renal"}, "U251 CNS": {"system": "U251 CNS"}, "HCC-2998 colon": {"system": "HCC-2998 colon"}}, "note": "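A five-concentration, 48-hour dose response in 96-well plates underlies each endpoint, interpolated linearly between surrounding concentrations. GI50: concentration for 50% inhibition of growth. TGI denotes the concentration required for complete inhibition of growth.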", "data": [{"smiles": "COc1cc2c3c(n(CCCO)c(=O)c2cc1OC)-c1cc2c(cc1C3=O)OCO2", "values": [{"measurement": "GI50", "setting": "BT-549 breast", "result": 2.22, "unit": "µM"}, {"measurement": "TGI", "setting": "BT-549 breast", "result": 49, "unit": "µM"}, {"measurement": "GI50", "setting": "HL-60(TB) leukemia", "result": 2.34, "unit": "µM"}, {"measurement": "TGI", "setting": "HL-60(TB) leukemia", "result": 10.4, "unit": "µM"}, {"measurement": "GI50", "setting": "HT29 colon", "result": "> 46.5", "unit": "µM"}, {"measurement": "TGI", "setting": "HT29 colon", "result": "> 100", "unit": "µM"}, {"measurement": "GI50", "setting": "M14 melanoma", "result": 3.68, "unit": "µM"}, {"measurement": "TGI", "setting": "M14 melanoma", "result": 32.8, "unit": "µM"}, {"measurement": "GI50", "setting": "SK-MEL-28 melanoma", "result": "> 31.2", "unit": "µM"}, {"measurement": "TGI", "setting": "SK-MEL-28 melanoma", "result": "> 100", "unit": "µM"}, {"measurement": "GI50", "setting": "SK-OV-3 ovarian", "result": 55.3, "unit": "µM"}, {"measurement": "TGI", "setting": "SK-OV-3 ovarian", "result": "> 100", "unit": "µM"}, {"measurement": "GI50", "setting": "T-47D breast", "result": 14.2, "unit": "µM"}, {"measurement": "TGI", "setting": "T-47D breast", "result": "> 100", "unit": "µM"}, {"measurement": "GI50", "setting": "TK-10 renal", "result": 34.7, "unit": "µM"}, {"measurement": "TGI", "setting": "TK-10 renal", "result": "> 100", "unit": "µM"}, {"measurement": "GI50", "setting": "U251 CNS", "result": 2.63, "unit": "µM"}, {"measurement": "TGI", "setting": "U251 CNS", "result": 27.8, "unit": "µM"}]}, {"smiles": "O=NN(CCCl)C(=O)NCc1ccc[n+]([O-])c1", "values": [{"measurement": "TGI", "setting": "HCC-2998 colon", "result": "> 100", "unit": "µM"}, {"measurement": "TGI", "setting": "HL-60(TB) leukemia", "result": "> 100", "unit": "µM"}, {"measurement": "TGI", "setting": "HT29 colon", "result": "> 100", "unit": "µM"}, {"measurement": "TGI", "setting": "M14 melanoma", "result": "> 100", "unit": "µM"}, {"measurement": "TGI", "setting": "SK-MEL-28 melanoma", "result": "> 100", "unit": "µM"}, {"measurement": "TGI", "setting": "SK-OV-3 ovarian", "result": "> 100", "unit": "µM"}, {"measurement": "TGI", "setting": "TK-10 renal", "result": "> 100", "unit": "µM"}, {"measurement": "TGI", "setting": "U251 CNS", "result": "> 100", "unit": "µM"}]}, {"smiles": "Cc1ccc(C2=[N+]([O-])c3ccccc3C2=O)cc1", "values": [{"measurement": "TGI", "setting": "HCC-2998 colon", "result": "> 100", "unit": "µM"}, {"measurement": "TGI", "setting": "HL-60(TB) leukemia", "result": 33.6, "unit": "µM"}, {"measurement": "TGI", "setting": "HT29 colon", "result": "> 65", "unit": "µM"}, {"measurement": "TGI", "setting": "M14 melanoma", "result": 59.4, "unit": "µM"}, {"measurement": "TGI", "setting": "SK-MEL-28 melanoma", "result": 22, "unit": "µM"}, {"measurement": "TGI", "setting": "SK-OV-3 ovarian", "result": "> 100", "unit": "µM"}, {"measurement": "TGI", "setting": "TK-10 renal", "result": "> 31.6", "unit": "µM"}, {"measurement": "TGI", "setting": "U251 CNS", "result": 44.9, "unit": "µM"}]}, {"smiles": "CC(C)SC1SCC2C(=O)N(C)C3(CC3C)C(=O)OCC(NC(=O)c3nc4ccccc4cc3O)C(=O)NC(C)C(=O)N(C)C1C(=O)N(C)C1(CC1C)C(=O)OCC(NC(=O)c1nc3ccccc3cc1O)C(=O)NC(C)C(=O)N2C", "note": "(configuration not stated)", "values": [{"measurement": "TGI", "setting": "HCC-2998 colon", "result": "< 0.0001", "unit": "µM"}, {"measurement": "TGI", "setting": "HL-60(TB) leukemia", "result": "< 0.0001", "unit": "µM"}, {"measurement": "TGI", "setting": "HT29 colon", "result": 2.88, "unit": "µM"}, {"measurement": "TGI", "setting": "M14 melanoma", "result": "< 0.0001", "unit": "µM"}, {"measurement": "TGI", "setting": "SK-MEL-28 melanoma", "result": "< 0.0001", "unit": "µM"}, {"measurement": "TGI", "setting": "SK-OV-3 ovarian", "result": 4.92, "unit": "µM"}, {"measurement": "TGI", "setting": "T-47D breast", "result": "> 100", "unit": "µM"}, {"measurement": "TGI", "setting": "TK-10 renal", "result": "< 0.0001", "unit": "µM"}, {"measurement": "TGI", "setting": "U251 CNS", "result": "< 0.0001", "unit": "µM"}]}, {"smiles": "Cc1c2[nH]c3ccc(Br)cc3c2c(C)c2[nH]ccc(=O)c12", "values": [{"measurement": "TGI", "setting": "HCC-2998 colon", "result": 31.1, "unit": "µM"}, {"measurement": "TGI", "setting": "HL-60(TB) leukemia", "result": 38.5, "unit": "µM"}, {"measurement": "TGI", "setting": "HT29 colon", "result": 30.2, "unit": "µM"}, {"measurement": "TGI", "setting": "M14 melanoma", "result": 30.9, "unit": "µM"}, {"measurement": "TGI", "setting": "SK-MEL-28 melanoma", "result": 34.8, "unit": "µM"}, {"measurement": "TGI", "setting": "TK-10 renal", "result": 26.9, "unit": "µM"}]}, {"smiles": "Cc1ccc(C)c(-n2c(-c3ccc(Br)cc3)csc2=NC(=O)c2ccccc2F)c1", "values": [{"measurement": "GI50", "setting": "BT-549 breast", "result": "> 100", "unit": "µM"}, {"measurement": "TGI", "setting": "BT-549 breast", "result": "> 100", "unit": "µM"}, {"measurement": "GI50", "setting": "HCC-2998 colon", "result": "> 100", "unit": "µM"}, {"measurement": "TGI", "setting": "HCC-2998 colon", "result": "> 100", "unit": "µM"}, {"measurement": "GI50", "setting": "HL-60(TB) leukemia", "result": 2.82, "unit": "µM"}, {"measurement": "TGI", "setting": "HL-60(TB) leukemia", "result": "> 100", "unit": "µM"}, {"measurement": "GI50", "setting": "M14 melanoma", "result": "> 100", "unit": "µM"}, {"measurement": "TGI", "setting": "M14 melanoma", "result": "> 100", "unit": "µM"}, {"measurement": "GI50", "setting": "SK-MEL-28 melanoma", "result": "> 100", "unit": "µM"}, {"measurement": "TGI", "setting": "SK-MEL-28 melanoma", "result": "> 100", "unit": "µM"}, {"measurement": "GI50", "setting": "SK-OV-3 ovarian", "result": "> 100", "unit": "µM"}, {"measurement": "TGI", "setting": "SK-OV-3 ovarian", "result": "> 100", "unit": "µM"}, {"measurement": "GI50", "setting": "TK-10 renal", "result": "> 100", "unit": "µM"}, {"measurement": "TGI", "setting": "TK-10 renal", "result": "> 100", "unit": "µM"}, {"measurement": "GI50", "setting": "U251 CNS", "result": "> 100", "unit": "µM"}, {"measurement": "TGI", "setting": "U251 CNS", "result": "> 100", "unit": "µM"}]}, {"smiles": "CCCCCCC(O)C/C=C/CCCCCC/C(C(=O)OC)=C(/O)C(=O)OCC", "note": "(configuration not stated)", "values": [{"measurement": "TGI", "setting": "HCC-2998 colon", "result": "> 100", "unit": "µM"}, {"measurement": "TGI", "setting": "HL-60(TB) leukemia", "result": "> 100", "unit": "µM"}, {"measurement": "TGI", "setting": "HT29 colon", "result": "> 100", "unit": "µM"}, {"measurement": "TGI", "setting": "M14 melanoma", "result": "> 100", "unit": "µM"}, {"measurement": "TGI", "setting": "SK-MEL-28 melanoma", "result": "> 100", "unit": "µM"}, {"measurement": "TGI", "setting": "SK-OV-3 ovarian", "result": "> 100", "unit": "µM"}, {"measurement": "TGI", "setting": "TK-10 renal", "result": "> 100", "unit": "µM"}, {"measurement": "TGI", "setting": "U251 CNS", "result": "> 100", "unit": "µM"}]}, {"smiles": "Cc1ccc(C)c(NC(=O)CC2C(=O)Nc3ccccc3S2(=O)=O)c1", "note": "(configuration not stated)", "values": [{"measurement": "TGI", "setting": "HCC-2998 colon", "result": "> 100", "unit": "µM"}, {"measurement": "TGI", "setting": "HL-60(TB) leukemia", "result": "> 100", "unit": "µM"}, {"measurement": "TGI", "setting": "HT29 colon", "result": "> 100", "unit": "µM"}, {"measurement": "TGI", "setting": "M14 melanoma", "result": "> 100", "unit": "µM"}, {"measurement": "TGI", "setting": "SK-MEL-28 melanoma", "result": "> 100", "unit": "µM"}, {"measurement": "TGI", "setting": "TK-10 renal", "result": "> 100", "unit": "µM"}, {"measurement": "TGI", "setting": "U251 CNS", "result": "> 100", "unit": "µM"}]}, {"smiles": "CC(C)(C)C(=O)Nc1ccccc1Br", "values": [{"measurement": "TGI", "setting": "HCC-2998 colon", "result": "> 100", "unit": "µM"}, {"measurement": "TGI", "setting": "HL-60(TB) leukemia", "result": "> 100", "unit": "µM"}, {"measurement": "TGI", "setting": "HT29 colon", "result": "> 100", "unit": "µM"}, {"measurement": "TGI", "setting": "M14 melanoma", "result": "> 100", "unit": "µM"}, {"measurement": "TGI", "setting": "SK-MEL-28 melanoma", "result": "> 100", "unit": "µM"}, {"measurement": "TGI", "setting": "SK-OV-3 ovarian", "result": "> 100", "unit": "µM"}, {"measurement": "TGI", "setting": "TK-10 renal", "result": "> 100", "unit": "µM"}, {"measurement": "TGI", "setting": "U251 CNS", "result": "> 100", "unit": "µM"}]}, {"smiles": "CCN(CC)c1ccc2[nH]c3c(C(N)=O)cc(=O)c(=O)c=3oc2c1", "values": [{"measurement": "GI50", "setting": "BT-549 breast", "result": 1.7, "unit": "µM"}, {"measurement": "TGI", "setting": "BT-549 breast", "result": 5.17, "unit": "µM"}, {"measurement": "GI50", "setting": "HL-60(TB) leukemia", "result": 1.66, "unit": "µM"}, {"measurement": "TGI", "setting": "HL-60(TB) leukemia", "result": 5.08, "unit": "µM"}, {"measurement": "GI50", "setting": "HT29 colon", "result": 2.97, "unit": "µM"}, {"measurement": "TGI", "setting": "HT29 colon", "result": 12.9, "unit": "µM"}, {"measurement": "GI50", "setting": "M14 melanoma", "result": 1.61, "unit": "µM"}, {"measurement": "TGI", "setting": "M14 melanoma", "result": 4.17, "unit": "µM"}, {"measurement": "GI50", "setting": "SK-MEL-28 melanoma", "result": 3.76, "unit": "µM"}, {"measurement": "TGI", "setting": "SK-MEL-28 melanoma", "result": 17.2, "unit": "µM"}, {"measurement": "GI50", "setting": "T-47D breast", "result": 2.58, "unit": "µM"}, {"measurement": "TGI", "setting": "T-47D breast", "result": "> 100", "unit": "µM"}, {"measurement": "GI50", "setting": "U251 CNS", "result": 0.912, "unit": "µM"}, {"measurement": "TGI", "setting": "U251 CNS", "result": 5.75, "unit": "µM"}]}]}
